Tests used:
[1] = tested on: Rice; test: Rice box experiment; assay type: in vivo, rice cultivar Nipponbare; conditions: low phosphate 0.025 mM, 10 μM, 13 days after germination, control 1.1
Protocol: All Arabidopsis plant experiments were performed using the Arabidopsis thaliana Columbia-0 background. The Arabidopsis pSPX1::GUS line is described in the Plant Journal 2008, 54: 965-975. For rice, the cultivar Nipponbare was used. For maize, the cultivars DKC 2931 and B104 were used for regular pot experiments and sand-based pot experiments, respectively. For soybean, the cultivar Primus was used. […] The medium was solidified due to the addition of 0.6% Gelrite, unless stated otherwise. […]
Arabidopsis primary root growth experiments were done on MS1/2 on vertical standing plates and roots were measured 11 days after germination. Roots were imaged using a flatbed scanner (EPSON Expression 11000XL) and root length was measured using ImageJ software. Arabidopsis shoot biomass was determined in 11 days after germination and growth on vertical standing plates with modMS. Arabidopsis leaf area was measured 21 days after germination on horizontal plates with modMS medium. Plates were scanned from the top using a flatbed scanner (EPSON Expression 11000XL) and the visible leaf area was measured using ImageJ software. […] Plant height was measured 11 days after germination. […] Plant height was measured 13 days after germination. […]

[2] = tested on: Maize DKC2931; test: Long-term maize pot experiment, DKC2931 (PHENOVISION); assay type: in vivo, maize cultivar DKC 2931
Protocol: Regular Arabidopsis, soybean and maize pot experiments used an unfertilized potting soil, which was supplemented at the start of the experiment with 50 ml H2O containing 0.25 g/l NH4NO3 and 0.44 g/l (high phosphate) or no (maize and soybean) or 0.11 g/l KH2PO (Arabidopsis) for low phosphate conditions. For the sand-based maize pot experiment, sand was supplemented with 50 ml H2O containing 0.25 g/l NH4NO3 and 0.38 g/l (high phosphate) or 0.02 g/l (low phosphate) KH2PO4. Potassium was balanced via addition of KCl. Compound concentration was 10 μM, calculated based on the total water content after watering, and was added at the start of the experiment (Arabidopsis) or once a week (maize). Indexed chlorophyll contents were received via a SPAD 502 Plus Chlorophyll Meter. All parameters in the sand experiment, except the rate of leaf 4 (measured the first 4 days after emergence), were measured 19 days after sowing. Measurements in the pot experiments with potting soil were done after 4 weeks of growth, except for leaf 5, which was measured at 26 days. One long-term maize pot experiment was conducted with the DKC 2931 (2.5 months) and B104 (3 months) cultivars on the PHENOVISION phenotyping platform as described in Frontiers in Plant Science 2021, 12: 640914, except that an unfertilized potting soil was used and that plants were fertilized with a low-phosphate Hoagland solution. The 2.5× overconcentrated low-phosphate Hoagland solution contained 0.034 g/l KH2PO and 200 mL of this solution was applied twice a week. 1.4 mL of a 10 mM compound solution was added each two weeks to each pot, corresponding to 9.6 mg/g nutrients. 13 plants per condition were used. During the experiment, pictures were taken twice a week for each plants from 6 different angles and the top. Pictures were used to extract the plant height and to extract the projected plant area from each side and calculate an estimated plant volume over time.

CC1CN(CC(=O)c2c(N)n(C)c(=O)n(C)c2=O)c2ccccc2O1 (stereo not drawn) [Compound 8, 6-amino-1,3-dimethyl-5-[2-(2-methyl-2,3-dihydro-1,4-benzoxazin-4-yl)acetyl]pyrimidine-2,4-dione]
Plant height [1]: 3.1 cm | Plant height ([2]; DKC2931, day 15, control 288): 297 mm | Estimated volume ([2]; DKC2931, day 15, control 361): 393 cm^3 | Plant height ([2]; DKC2931, day 19, control 352): 368 mm | Estimated volume ([2]; DKC2931, day 19, control 576): 763 cm^3 | Plant height ([2]; DKC2931, day 22, control 335): 372 mm | Estimated volume ([2]; DKC2931, day 22, control 843): 1104 cm^3 | Plant height ([2]; DKC2931, day 26, control 378): 452 mm | Estimated volume ([2]; DKC2931, day 26, control 1145): 1646 cm^3 | Plant height ([2]; DKC2931, day 27, control 352): 460 mm | Estimated volume ([2]; DKC2931, day 27, control 1086): 1826 cm^3 | Plant height ([2]; DKC2931, day 29, control 399): 471 mm | Estimated volume ([2]; DKC2931, day 29, control 1581): 2187 cm^3 | Plant height ([2]; DKC2931, day 33, control 424): 553 mm | Estimated volume ([2]; DKC2931, day 33, control 2272): 3213 cm^3 | Plant height ([2]; DKC2931, day 36, control 531): 634 mm | Estimated volume ([2]; DKC2931, day 36, control 2854): 3881 cm^3 | Plant height ([2]; DKC2931, day 40, control 578): 694 mm | Estimated volume ([2]; DKC2931, day 40, control 3872): 5092 cm^3 | Plant height ([2]; DKC2931, day 43, control 655): 756 mm | Estimated volume ([2]; DKC2931, day 43, control 4240): 5538 cm^3 | Plant height ([2]; DKC2931, day 47, control 732): 799 mm | Estimated volume ([2]; DKC2931, day 47, control 4988): 6770 cm^3 | Plant height ([2]; DKC2931, day 50, control 777): 844 mm | Estimated volume ([2]; DKC2931, day 50, control 5718): 7419 cm^3 | Plant height ([2]; DKC2931, day 54, control 562): 652 mm | Estimated volume ([2]; DKC2931, day 54, control 6325): 8086 cm^3 | Plant height ([2]; DKC2931, day 57, control 678): 894 mm | Estimated volume ([2]; DKC2931, day 57, control 6295): 7681 cm^3 | Plant height ([2]; DKC2931, day 61, control 893): 1021 mm | Estimated volume ([2]; DKC2931, day 61, control 6047): 7458 cm^3 | Plant height ([2]; DKC2931, day 63, control 811): 880 mm | Estimated volume ([2]; DKC2931, day 63, control 5546): 6642 cm^3 | Plant height ([2]; DKC2931, day 68, control 849): 895 mm | Estimated volume ([2]; DKC2931, day 68, control 4292): 4967 cm^3 | Plant height ([2]; DKC2931, day 71, control 856): 916 mm | Estimated volume ([2]; DKC2931, day 71, control 4022): 4807 cm^3 | Plant height ([2]; DKC2931, day 75, control 798): 903 mm | Estimated volume ([2]; DKC2931, day 75, control 3778): 4587 cm^3 | Average number of ears ([2]; Maize pot long term DKC2931, 2.5 months, low phosphate, control 1): 1 | Shoot weight ([2]; Maize pot long term DKC2931, low phosphate, control 27): 33 g | Leaf 6 ([2]; Maize pot long term DKC2931, low phosphate, control 53): 58 cm

Source: patent US20240206469A1, “PHOSPHORUS USE EFFICIENCY ENHANCERS AS PLANT GROWTH PROMOTORS” (EUROCHEM ANTWERPEN, priority 2021, published 2024)
